Where a SMILES comes first, the peptide text is derived from it. The star is where a group is joined. Cbz = O=C(OCc1ccccc1)*

For test [1], the system named is rat ovocytes. Description: Inhibition of spontaneous activation of rat ovocytes by exposure to a proteasome inhibitor. The class given is cell-based. The settings on record: repeats n = 2. From the text: The method according to the invention presents the advantage of strictly and reversibly controlling the ovocyte activation process by acting upstream of the biochemical processes that control activation and by preventing the degradation of the macromolecular compounds responsible for arrest of the ovocyte in metaphase and in particular of the cyclins. In order to do this, the ovocyte is exposed in vitro to one or more inhibitor(s) of proteasome, a key organelle of the cell: inhibition of its proteolytic action on the cyclins makes it possible to maintain an elevated level of MPF kinasic activity which determines metaphase arrest. The majority of ovocytes may thus be maintained in metaphase of the second meiotic division for several hours after their harvest (table 1).
Solutions: • Medium M2 (Hogan & al, 1994 In: Manipulating the Mouse Embryo) • Medium RECMB2*-MG132 (MG132=1.25 μM) • Medium M2-Hyaluronidase-MG132 (MG132=1.25 μM; Hyaluronidase=2.5 mg/ml) • Medium M2-MG132 (MG132=5.00 μM) • *RECMB2=medium mRlECM-BSA (Oh & al. (1998) Biol. Reprod.), with BSA=4 mg/ml and NaCl=100-130 mM.
10. The “decoronised” ovocytes are transferred to a drop of culture medium RECMB2-MG132.

In test [2] the test system is rat ovocytes. Description: Reversibility of the inhibition of spontaneous activation of rat ovocytes (parthenogenetic development after removal of MG132 and activation by butyrolactone). The test is classed as cell-based. Particulars: repeats n = 5.
Test [3] concerns rat embryos reconstructed from ovocytes. The experiment in a line: Rate of foetal development of rat embryos reconstructed from ovocytes previously exposed to a proteasome inhibitor. The test is classed as in vivo. The text has this:
By the method according to the invention, the ovocytes are transferred to a medium not containing inhibitor(s) right before conducting the reconstruction of the embryos. This makes it possible to avoid direct exposure of the nucleus donor cells to their action. Reconstruction of the embryos must then be carried out very rapidly before proteasome becomes functional again in order to avoid a premature activation of the ovocyte. The purpose of this rapid reconstruction is to […] the period during which the condensed chromatin of the nucleus is directly exposed to the ovocyte factors which make possible the reprogramming of the activity of the foreign nucleus. It then becomes possible to reconstitute a greater number of embryos during a given time period, and therefore to increase the number of transplanted embryos per recipient female for in vivo development. This possibility makes it possible to get around the low rate of implantation observed in the rat after transfer of a nucleus (table 4).
These foetuses may give rise to viable baby rats (table 4).
Set up the retention and enucleation-injection pipettes on their respective pipette holders. • 5. Position the pipettes so that their ends are horizontal, i.e., parallel to the coverglass of the micromanipulation chamber, and facing each other. • 6. Transfer the ovocytes and the cells to the micro-injection chamber by means of a pipette for manipulation of the ovocytes. • 7. Maintain an ovocyte on the maintenance pipette in order that the deformation of the plasma membrane under which the ovocyte metaphase is situated, is situated between 2 and 3 hr or between 3 and 4 hr. • 8. Apply the enucleation-injection pipette to the pellucid area at 3 hr. Verify that the pipette is in exactly the same plane as the pellucid area. Gently aspirate the pellucid area and activate the piezo system (setting 1) to puncture it. When the system is perfectly adjusted the pellucid area is punctured in a few seconds according to a perfect punch. • 9. Next, aspirate a cell whose morphology corresponds to the sought-for criteria into the enucleation-injection pipette and break its plasma membrane by several to-and-fro's in the pipette or by means of the piezo-Drill (a few impulsions are sufficient at setting 2). Maintain the cell close to the end of the micropipette. • 10. Penetrate into the perivitelline space of the ovocyte through the previously punctured orifice, apply the pipette against the plasma membrane and push the donor cell back to the end of the pipette and then push the pipette in up to the opposite end of the ovocyte without, however, reaching the plasma membrane opposite. • 11. Break the plasma membrane by means of one or more impulsions (1 to 3) of the Piezo-Drill (setting 2). • 12. Inject the cell into the cytoplasm of the ovocyte with the minimum possible medium. • 13. Gently withdraw the enucleation-injection pipette and re-close the ovocyte by aspirating the 2 ends of the broken plasma membrane and the ovocyte metaphase (enucleation). • 14. Transfer the reconstructed embryos into a micro-drop (50 μl) of RECMB2. • 15. Ovocyte activation is triggered or prolonged by transfer of the ovocytes to a micro-drop (20 μl) of RECMB2-BLI for a duration of activation generally between 1 and 2 hr. • 16. The ovocytes are then rinsed in 4-5 drops (50 μl) of RECMB2 to be cultured in the same medium while waiting to be transferred into a pseudogestating female or to prolong in vitro culture.

Where [4] appears, read: reconstructed embryos transferred to recipient females.

As to `CC(C)C[C@@H](C=O)NC(=O)[C@H](CC(C)C)NC(=O)[C@H](CC(C)C)NC(=O)OCc1ccccc1` [MG132, peptide aldehyde Cbz-LLL-H] (Cbz-Leu-Leu-Leu-aldehyde), the “% of activated ovocytes after collection” value in the test with rat ovocytes [1] (t = 0) is listed as 0% (0/68). Also, the “% of activated ovocytes after collection” value in the test on rat ovocytes [1] (t = 210 m after collection) is given as 33.8% (23/68). Moreover, the “% of embryos (parthenogenetic development at the morula stage)” value with rat ovocytes [2] (t = 0 removal of MG132, exposure to MG132 for 120 min, activation by butyrolactone) is given as 0% (0/71). In the test with rat ovocytes [2] (t = 120 min, after removal of MG132 and induction of activation by butyrolactone), the “% of embryos (parthenogenetic development at the morula stage)” value was 45.9% (34/74). Moreover, in test [3] (% in brackets), the “No. of foetuses (%) total” value worked out at 55.9% and the “No. of foetuses (%) viable” value is 47.0%. Also, in test [3] (number of recipient females), the “pregnant recipients between D12-22” value is 11. Also, in test [3] (of the viable foetuses), the “living at D12-D14” value was determined as 11 and the “living rats at term” value amounted to 5. Besides, in test [3] (rat, in vivo), the “No. of foetuses total” value is reported as 19 and the “No. of foetuses viable” value is reported as 16. Also, in test [3] (setting [4]), the “implantation (%)” value came to 5.4% and the “implantation (number)” value worked out at 34.

The values above are taken from patent publication US7799969B2, “Methods for cloning rats by nuclear transfer” (Institut National de la Recherche Agronomique, priority 2003, dated 2010).
